Results taken from US12129490B2, “Methods for generating hepatocytes and cholangiocytes from pluripotent stem cells” (UNIVERSITY HEALTH NETWORK, priority 2018, dated 2024).
Read-outs that look alike come from different tables or passages of the source.

Columns and labels:
[1] = system: hESC-derived hepatic aggregates
Description: To further mature the cells, the role of cAMP signaling was investigated. Studies using hepatic cell lines have shown that activation of this pathway can induce hepatic gene expression, in part through the induction of the peroxisome proliferator-activated receptor gamma coactivator-1-alpha (PGC1-a), a coactivator that functions together with HNF4a to regulate the expression of many genes involved in hepatocyte function 25 28. […] The proportion of ALB positive cells was not reduced in spite of the fact that the levels of mRNA declined (FIG. 5b). Without being bound by theory, these differences could reflect differences in RNA vs. protein expression. Other tissues, such as the pancreas, also express PGC-1a.
(§1) HPSCs were maintained on irradiated mouse embryonic feeder cells in hESC media consisting of DEME/F12 (50:50; Gibco) supplemented with 20% Knock-out serum replacement (KSR) as described previously^44. Prior to the generation of embryoid bodies (EBs), hESCs were passaged onto Matrigel™-coated plates for 1 day to deplete the population of feeder cells. […] At day 1, the EBs were harvested and re-cultured in induction medium A that consisted of StemPRO-34® supplemented with glutamine (2 mM), ascorbic acid ([…]; Sigma), MTG ([…]; Sigma), basic fibroblast growth factor (bFGF; 2.5 ng/ml), activin A (100 ng/ml), Wnt3a (25 ng/ml) and BMP4 (0.25 ng/ml) for 3 days. On day 4, the EBs were harvested and re-cultured in StemPRO-34® supplemented with bFGF (10 ng/ml), activin A (100 ng/ml), Wnt3a (25 ng/ml) and BMP4 (0.25 ng/ml) (medium B). EBs were harvested at day 6, dissociated to single cells and the cells cultured for 2 days on Matrigel™-coated 12 well plates at a concentration of 4×10^5 cells in media B without Wnt3A and with activin A at a concentration of 50 ng/ml. At day 8, medium B was replaced with hepatic specification media that consisted of Iscove's Modified Dulbecco's Medium (IMDM) supplement with 1% vol/vol B27 supplement (Invitrogen: A11576SA), ascorbic acid, MTG, FGF10 (50 ng/ml) (from day 8 to day 10), bFGF (20 ng/ml) (from day 10 to day 14), and BMP4 (50 ng/ml). Media was changed every 2 days from day 8 to day 14. To promote maturation of HES2-derived hepatic cells, they were cultured in maturation media A for 12 days. Maturation media A consisted of IMDM with 1% vol/vol B27 supplement, ascorbic acid, Glutamine, MTG, Hepatocyte growth factor (HGF) (20 ng/ml), Dexamethasone Dex) (40 ng/ml) and Oncostatin M (20 ng/ml). Aggregates were generated from the population at day 26 of culture. To generate aggregates the cells were dissociated with collagenase and TrypleLE and then cultured in six well ultra-low cluster dishes at a concentration of 6×10^5 cells per well in maturation medium A supplemented with Rho-kinase inhibitor and 0.1% BSA. Aggregates were maintained under these conditions until day 32, with media changes every 3 days. […] Media was changed every 3 days. To generate hepatocyte like cells from H9, H1 and IPS cells, the following changes were made to the hepatic specification media. […] All cytokines were human and purchased from R&D Systems, unless stated otherwise. EB and monolayer cultures were maintained in a 5% CO2, 5% O2, 90% N2 environment. Aggregation cultures were maintained in a 5% CO2 ambient air environment.
(§2) Total RNA was prepared with RNAqueous® Micro Kit (Ambion) and treated with RNase-free DNase (Ambion). 500 ng to 1 μg RNA was reverse transcribed into cDNA using random hexamers and Oligo(dT) with Superscript® III Reverse Transcriptase (Invitrogen). qPCR was performed on a MasterCycler® ep realplex (Eppendorf) using A QuentiFast SYBR Green PCR Kit (Quiagen) as described previously^45. Expression levels were normalized to the housekeeping gene TATA box binding protein (TBP). […] Total human adult and fetal liver RNA was purchased from Clontech. Two primary hepatocyte RNA samples were provided by Dr Stephen C. […] Two primary hepatocyte samples were cultured for two day and were harvested.

[2] = system: H9- and iPSC (38-2)-derived hepatic aggregates
Experimental: as §1, §2

hESC-derived cells = experiment: Albumin secretion, ELISA; format: cell-based, human
Experimental: The levels of albumin (ALB) secreted by hESC-derived monolayer and aggregate populations, as well as by HepG2 cells, Huh7 cells and cryopreserved hepatocytes (PH, lot OSI) was detected using an ELISA assay. […] Only low levels were detected in HepG2, Huh7 and PH cells. By contrast, the capacity to take up indocyanine green (ICG), a characteristic of adult hepatocytes (Stieger et al., 2012) was enhanced by cAMP signaling. ICG uptake and release by cAMP-treated and non-treated was measured in day 44 aggregates.

hepatic aggregates = experiment: Indocyanine green (ICG) uptake of hepatic aggregates; format: cell-based, human; settings: day 44 aggregates
Experimental: The indocyanine green (ICG, Sigma) solution was added to the cells at final concentration of 1 mg/ml ICG in HCM (Lonza). The cells were incubated at 37° C. for 1 hour, washed 3 times with PBS, and then examined with an inverted Microscope (Leica).

[3] = system: UDP-glucuronosyltransferase (UGT); experiment: Total UGT activity, 4-MU glucuronidation; format: in vitro ADME, human; settings: cAMP-treated aggregates versus primary cultured hepatocytes
[4] = hepatic aggregates, day 32 to 44
[5] = hepatic aggregates, day 32 to 44, average

expression of CYP1A2 and CYP3A4 [1]: little increase
increase in expression of CYP1A2 [1]: 18 fold
increase in expression of CYP2B6 [1]: 4.7 fold
increase in expression of CYP3A4 [1]: 2.5 fold
expression of CYP1A2 [2]: 100 fold
expression of CYP2B6 [2]: 10 fold
expression of CYP3A4 [2]: 16 fold
expression of CYP3A4, CYP1A2, CYP2B6 and UGT1A1 [2]: as high as those in primary hepatocytes
Compound: Nc1ncnc2c1nc(Br)n2[C@@H]1O[C@@H]2COP(=O)(O)O[C@H]2[C@H]1O [8-Br-cAMP, 8-bromoadenosine-3′5″-cyclic monophosphate]
induction of UGT1A1 expression ([1]; HES2-derived aggregates, day 44, relative to non-treated): 11 fold
expression of PGC1-a ([1]; hESC-derived insulin positive pancreatic cells): not induced
expression level of AFP [1, 4]: downregulated
expression level of ALB [1, 4]: downregulated
expression of PGC1-a [1, 4]: 15 fold
expression of G6P [1, 5]: 25 fold
expression of TAT [1, 5]: 33 fold
expression of UGT1A1 ([2]; H9-derived aggregates): 16 fold
albumin secretion (hESC-derived cells): not impacted
ICG staining of aggregates (hepatic aggregates): almost all treated aggregates stained with ICG
UGT activity [3]: higher than that of primary cultured hepatocytes
